Tests used:
HIV RT = molecular target: T1, HIV RT (Human immunodeficiency virus type 1 group M subtype B, UniProt P03366); test: Primer extension assay with HIV reverse transcriptase using PLE hydrolysate; format: biochemical; details: hydrolysate after complete consumption of prodrug and intermediate; 2.5 μM, 37 °C, 10 min
T1 construct: Primer extension assays with HIV reverse transcriptase; purchased Roboklon
Description: To confirm the prodrug concept and thus the direct successful release of the biologically active triphosphate metabolite, the prodrug 3e was exposed to PLE and the hydrolysis monitored with RP-18-HPLC. After complete consumption of 3e as well as its intermediate 4e the solvents were removed. For the template/primer extension assay (Fig. 4a), HIV RT was incubated with the PLE hydrolysate as such (T*) or with the PLE hydrolysate in the additional presence of dCTP (T*, C), or dCTP+dGTP (T*, C, G) or all natural 2′-deoxynucleotides (N*). […] In addition, TriPPPro-TTP 3r was synthesized (Fig. 5) and also investigated in the same way. […] The primer could be fully extended till 30 nt when T* was added in the presence of dCTP and dGTP, as also the N* and N samples could.
The used polymerase HIV RT was obtained from Roboklon. The primer and template were purchased from Life Technologies.
The primer extension assays were performed under the following conditions:
The primer was labelled using [γ^32P]-ATP according to standard techniques. After 5-min incubation at 95 °C in 20 mM Tris-HCl (pH 7.6) and 50 mM NaCl, the hybridization/annealing of the primer to the template strand was achieved by a cooling phase from 95 to 20 °C over 3 h. […]

HIV-1(IIIB) = test: Anti-HIV activity assay, HIV-1 in wild-type CEM/0 cells; format: cell-based; details: HIV-induced giant cell formation, mean±s.d., n=2–3
Description: (§1) Inhibition of HIV-1(IIIB)- and HIV-2(ROD)-induced cytopathicity in wild-type CEM/0 and TK-deficient CEM/TK^− cell cultures was measured in microtitre 96-well plates containing ∼3 × 10^5 CEM cells ml^−1 infected with 100 CCID50 of HIV per millilitre and containing appropriate dilutions of the test compounds. After 4−5 days of incubation at 37 °C in a CO2-controlled humidified atmosphere, CEM giant (syncytium) cell formation was examined microscopically. The EC50 (50% effective concentration) was defined as the compound concentration required to inhibit HIV-induced giant cell formation by 50%.

pig liver esterase (PLE) = test: Enzymatic hydrolysis with pig liver esterase (PLE) in PBS; format: in vitro ADME; details: PLE in PBS pH 7.3, 37 °C; for t1/2(1) PLE: removal of first masking unit (half-lives of 3); for t1/2(2) PLE: second hydrolysis step, half-lives of intermediate 4
Description: Furthermore, 140 μl of the 6.0 mM solution was diluted with 105 μl DMSO-d6 and 700 μl 50 mM PBS buffer. The reaction was started by addition of 52.5 μl of PLE in PBS buffer (3 mg ml^−1) and the mixture was incubated at 37 °C in a thermomixer. At different times, aliquots (125 μl) were taken and treated as follows: (a) for 3a–g,l,m and 4a,e the reaction was stopped by addition to 132.5 μl MeOH. […] (b) For 3h,i,k,n and 4j, the sample was directly frozen in liquid nitrogen.

HIV-2(ROD) [1] = test: Anti-HIV activity assay, HIV-2 in TK-deficient CEM/TK− cells; format: cell-based; details: thymidine kinase-deficient CEM/TK− cells, mean±s.d., n=2–3
Description: as §1

[2] = Chemical hydrolysis in PBS, pH 7.3; format: physicochemical; details: for t1/2(1) PBS, pH=7.3: removal of first masking unit (half-lives of 3); for t1/2(1) PBS, pH=7.3 / t1/2(2) PBS, pH=7.3: PBS pH 7.3, 37 °C; for t1/2(2) PBS, pH=7.3: second hydrolysis step, half-lives of intermediate 4 to give d4TTP 19
Description: Stock solutions (50 mM in DMSO-d6) of the appropriate compounds were prepared. After dilution of 11 μl with 100 μl Millipore water and 189 μl DMSO-d6 to 1.9 mM hydrolysis solutions the reaction was started by the addition of 300 μl PBS (50 mM, pH 7.3). The solution was incubated at 37 °C in a thermomixer. An initial aliquot (25 μl) was taken directly and analysed by analytical HPLC at 265–266 nm. Further aliquots were taken for monitoring the kinetic hydrolysis. The exponential decay curves (pseudo-first order) based on absolute integral values were calculated with commercially available software (OriginPro 9.0G) and yielded the half-lives t1/2(1) and t1/2(2) of the prodrugs via one determination.

[3] = Enzyme-catalysed hydrolysis in CEM cell extracts; details: human CEM cell extract, 37 °C
Description: The hydrolysis mixtures were analysed by means of analytical RP-18-HPLC.
A volume of 10 μl of the appropriate 50 mM DMSO-d6 stock solution was diluted to 6.0 mM hydrolysis solution by addition of 73.3 μl DMSO-d6. Seven different samples including 10 μl water and 10 μl hydrolysis solution were prepared. The reaction was started by addition of 50 μl human CEM cell extract and the mixture was incubated at 37 °C for different time periods of hydrolysis. The work-up depended on the particular compound: (a) for 3a–f,l,m,p and 4a,e the reactions were stopped by addition of 150 μl MeOH. The solution was kept on ice for 5 min followed by centrifugation for 5 min (13,000 r.p.m.). The supernatants were filtered (Chromafil RC-20/15 MS, 0.2 μm) and stored in liquid nitrogen. (b) For 3g–i,k,n and 4j, the samples were directly frozen in liquid nitrogen. The solution was defrosted followed by ultrasonication for 10 min. After centrifugation for 5 min the supernatants were filtered (Chromafil AO-20/3, 0.2 μm) and stored at −196 °C. (c) For 3j the mixture was diluted with 70 μl THF (HPLC grade) and frozen in liquid nitrogen followed by defrosting, ultrasonication, centrifugation, filtration and stored as described for (b). Samples were defrosted and 50–80 μl were subjected to HPLC analysis.
Human CD4^+ T-lymphocyte CEM cells were grown in RPMI-1640-based cell culture medium to a final density of ∼3·10^6 cells ml^−1. Then, cells were centrifuged for 10 min at 1,250 r.p.m. at 4 °C, washed twice with cold PBS and the pellet was resuspended at 10^8 cells ml^−1 and sonicated (Hielscher Ultrasound Techn., 100% amplitude, three·times for 10 s) to destroy cell integrity. The resulting cell suspension was then centrifuged at 10,000 r.p.m. to remove cell debris, and the supernatant divided into aliquots before being frozen at −80 °C and used.

CD4+ T-cell (CEM) = test: Cytotoxicity: inhibition of CEM cell proliferation; format: cell-based, human; details: 50% cytostatic concentration, mean±s.d., n=2–3
HIV-2(ROD) [4] = test: Anti-HIV activity assay, HIV-2 in wild-type CEM/0 cells; format: cell-based; details: read-out: EC50 CEM HIV-2
Description: as §1

[5] = Cytotoxicity: inhibition of CEM cell proliferation; format: cell-based, human; details: human, CEM cells (CD4+ T-cells), 50% cytostatic concentration, mean±s.d., n=2–3
[6] = wild-type CEM cells, HIV-induced giant cell formation, mean±s.d., n=2–3

Row | Structure (SMILES) | EC50 (HIV-1(IIIB)) [nM] | t1/2(1) PLE (pig liver esterase (PLE)) [h] | t1/2(2) PLE (pig liver esterase (PLE)) [h] | EC50 (HIV-2(ROD) [1]) [nM] | t1/2(1) PBS, pH=7.3 [2] [h] | t1/2(2) PBS, pH=7.3 [2] [h] | t1/2(1) CEM [3] [h] | EC50 (HIV-2(ROD) [4]; [6]) [nM] | primer extension by HIV RT with PLE hydrolysate of the prodrug (HIV RT) | CC50 (CD4+ T-cell (CEM)) [µM] | EC50 (HIV-1(IIIB); Human immunodeficiency virus 1, IIIB, CCRF-CEM) [nM] | EC50 (HIV-2(ROD) [1]; Human immunodeficiency virus 2) [nM] | time in which amount of thymine doubles (cleavage of the glycosidic bond) ([2]; long chemical hydrolysis time periods) [h] | CC50 [5] [µM] | EC50 (HIV-2(ROD) [4]; Human immunodeficiency virus 2, CCRF-CEM) [nM]
1 | CCCCCCCCC(=O)Oc1ccc(COP(=O)(OCc2ccc(OC(=O)CCCCCCCC)cc2)OP(=O)(O)OP(=O)(O)OC[C@@H]2C=C[C@H](n3cc(C)c(=O)[nH]c3=O)O2)cc1 [3e, γ-Bis-(4-nonanoyloxybenzyl)-d4TTP] | 310 ± 10 | 0.013 | 1.6 | 2260 ± 1030 | 52 | 390 | 2.5 | 620 ± 300 | immediate DNA chain termination | 52 ± 1 | – | – | – | – | –
2 | Cc1cn([C@H]2C=C[C@@H](CO)O2)c(=O)[nH]c1=O [d4T, 3′-deoxy-2′,3′-didehydrothymidine, reference compound] | – | – | – | – | – | – | – | – | – | – | 330 ± 110 | 150000 ± 9000 | 63 | 79 ± 3 | 890

Further lines, with some results ahead:

Row | EC50 (HIV-1(IIIB)) [nM] | t1/2(1) PLE (pig liver esterase (PLE)) [h] | t1/2(2) PLE (pig liver esterase (PLE)) [h] | EC50 (HIV-2(ROD) [1]) [nM] | t1/2(1) PBS, pH=7.3 [2] [h] | t1/2(2) PBS, pH=7.3 [2] [h] | t1/2(1) CEM [3] [h] | EC50 (HIV-2(ROD) [4]; [6]) [nM] | Structure (SMILES) | primer extension by HIV RT with PLE hydrolysate of the prodrug (HIV RT) | CC50 (CD4+ T-cell (CEM)) [µM] | EC50 (HIV-1(IIIB); Human immunodeficiency virus 1, IIIB, CCRF-CEM) [nM] | EC50 (HIV-2(ROD) [1]; Human immunodeficiency virus 2) [nM] | time in which amount of thymine doubles (cleavage of the glycosidic bond) ([2]; long chemical hydrolysis time periods) [h] | CC50 [5] [µM] | EC50 (HIV-2(ROD) [4]; Human immunodeficiency virus 2, CCRF-CEM) [nM]
3 | 400 | 3.8 | 177 | > 10000 | 24 | 200 | 0.97 | 920 ± 120 | COC(=O)Oc1ccc(COP(=O)(OCc2ccc(OC(=O)OC)cc2)OP(=O)(O)OP(=O)(O)OC[C@@H]2C=C[C@H](n3cc(C)c(=O)[nH]c3=O)O2)cc1 [3l, γ-Bis-(4-methyloxycarbonyloxybenzyl)-d4TTP] | – | 16 ± 1 | – | – | – | – | –
4 | 360 ± 60 | 0.12 | 17 | 1260 | 82 | 590 | 2.6 | 470 ± 100 | CCCCCCCCOC(=O)Oc1ccc(COP(=O)(OCc2ccc(OC(=O)OCCCCCCCC)cc2)OP(=O)(O)OP(=O)(O)OC[C@@H]2C=C[C@H](n3cc(C)c(=O)[nH]c3=O)O2)cc1 [3m, γ-Bis-(4-octyloxycarbonyloxybenzyl)-d4TTP] | – | 51 ± 5 | – | – | – | – | –
5 | 500 ± 140 | 44 | – | 1260 | 99 | 631 | 3.0 | 690 ± 210 | CCCCCCCCCCCCOC(=O)Oc1ccc(COP(=O)(OCc2ccc(OC(=O)OCCCCCCCCCCCC)cc2)OP(=O)(O)OP(=O)(O)OC[C@@H]2C=C[C@H](n3cc(C)c(=O)[nH]c3=O)O2)cc1 [3n, γ-Bis-(4-dodecyloxycarbonyloxybenzyl)-d4TTP] | – | 41 ± 12 | – | – | – | – | –

Source: paper PMC4640093, “Lipophilic prodrugs of nucleoside triphosphates as biochemical probes and potential antivirals” (Nature Communications, 2015)
